Experimental findings from ChEMBL document CHEMBL1165884, “Microwave-assisted synthesis and in-vitro anti-tumor activity of 1,3,4-triaryl-5-N-arylpyrazole-carboxamides” (Eur J Med Chem, 2010) are described below.

Each structure is given as a SMILES string. Converted amounts (≈) assume the structure as drawn.

One experiment has as its system HEp-2. In words: Cytotoxicity against human Hep2 cells after 48 hrs. Conditions: HEp-2, 48 h.
Another experiment relates to Caco-2. Briefly: Cytotoxicity against human Caco-2 cells after 48 hrs. Conditions: Caco-2, 48 h.

One may read the IC50 as the concentration needed to halve the response being measured. A low value points to greater potency. For the compound `O=C(Nc1ccccc1)c1c(-c2ccc(Cl)cc2)c(-c2ccccc2)nn1-c1ccccc1`, the IC50 with HEp-2 turned out to be 0.74 µg/mL (≈ 1.64 µM); with Caco-2, 1.74 µg/mL (≈ 3.87 µM).
With `Cc1ccc(NC(=O)c2c(-c3ccccc3)c(-c3ccccc3)nn2-c2ccccc2)cc1`, the IC50 in the experiment on HEp-2 came to 1.21 µg/mL (≈ 2.82 µM); in the experiment on Caco-2, 2.21 µg/mL (≈ 5.15 µM).
Consider `Cc1ccc(NC(=O)c2c(-c3ccccc3)c(-c3ccc(Cl)cc3)nn2-c2ccccc2)cc1`, for which the IC50 with HEp-2 came to 1.21 µg/mL (≈ 2.61 µM); in the experiment with Caco-2, 0.67 µg/mL (≈ 1.44 µM).
On the same counts, the results for `O=C(c1c(-c2ccc(Cl)cc2)c(-c2ccccc2)nn1-c1ccccc1)n1c(=S)[nH]c2ccccc21` are 1.54 µg/mL (≈ 3.04 µM) and 3.29 µg/mL (≈ 6.49 µM).
Regarding `Cc1ccc(NC(=O)c2c(-c3ccc(Cl)cc3)c(-c3ccccc3)nn2-c2ccccc2)cc1`, the IC50 in the experiment on HEp-2 was found to be 0.81 µg/mL (≈ 1.75 µM); in the experiment with Caco-2 it was 1.54 µg/mL (≈ 3.32 µM).
On the same counts, the results for `O=C(c1c(-c2ccccc2)c(-c2ccccc2)nn1-c1ccccc1)n1c(=S)[nH]c2ccccc21` are 7.18 µg/mL (≈ 15.2 µM) and 1.48 µg/mL (≈ 3.13 µM).
Consider `COc1cccc2c1C(=O)c1c(O)c3c(c(O)c1C2=O)C[C@@](O)(C(=O)CO)C[C@@H]3O[C@H]1C[C@H](N)[C@H](O)[C@H](C)O1` [DOXORUBICIN], for which the IC50 with HEp-2 was 0.4 µg/mL (≈ 0.736 µM); in the experiment on Caco-2, 1 µg/mL (≈ 1.84 µM).
Take `O=C(Nc1ccccc1)c1c(-c2ccccc2)c(-c2ccccc2)nn1-c1ccccc1`: the IC50 with HEp-2 was determined as 1.5 µg/mL (≈ 3.61 µM); in the experiment with Caco-2, 1.68 µg/mL (≈ 4.04 µM).
